According to patent publication US20100260680A1, “NOVEL BONE MASS INCREASING AGENT” (ORIENTAL YEAST CO., LTD., priority 2007, published 2010):
“Also recorded” adds a separate entry of the source. Bridges are numbered along the chain shown (N, C = ends). Where no end group is shown, it is not given here.

Experiments:
[1] = system: Human mesenchymal stem cells; assay: Alizarin red S staining (calcification) of human mesenchymal stem cells; format: cell-based; conditions: 300 μM; Day 21; regardless of induction of differentiation
Protocol: On Day 21 after differentiation, the cells were washed with PBS, followed by fixation with a 10% neutral buffer formalin solution.
The cells were washed with water after removal of the fixative solution. A 1% alizarin red S stain solution (Nacalai) (150 μL) was added thereto. The plate was left at room temperature for 3 minutes. Thereafter, the stain solution was discarded, followed by washing with water and drying. Then, microscopic observation was carried out.
Human mesenchymal stem cells were cultured in the same manner as in Example 1. Peptide D (300 μM) was added to human mesenchymal stem cells.

C2C12 cells = assay: ALP activity determination in C2C12 cells; format: cell-based, mouse; conditions: 6 days
mouse osteoblasts = assay: Proliferative response of mouse osteoblasts (WST-1); format: cell-based; conditions: 100 μM peptide D (acetate) or 3 μg/mL antibody; with or without 5 ng/mL BMP-2; 72-hour culture
Protocol: Mouse osteoblasts mixed with 10% FBS+αMEM (SIGMA) were seeded on a 96-well plate (2×10^3 cells/well). After cell adhesion had taken place, the medium was removed therefrom. […] After 72-hour culture, WST-1 (Roche) was added thereto in an amount 1/10 that of each medium, followed by incubation at 37° C. for 3 hours. Then, the OD value (450 nm) for each well was determined with a microplate reader (BMG Labtech) (reference wavelength: 595 nm).

MC3T3-E1 cells [2] = assay: DNA microarray analysis of MC3T3-E1 cells; format: cell-based, mouse; conditions: 200 μM peptide D (acetate)
Protocol: MC3T3-E1 cells mixed with 10% FBS+αMEM (SIGMA) were seeded on a 10 cm dish (2×10^5 cells/well). After 12 hours, the medium was removed therefrom. […] The medium was partially removed at 12 and 96 hours, at which time TRIZOL solution (Invitrogen) (3 mL) was added to each well for cell lysis. Then, total RNA extraction was carried out by the method described in Example 15. Each extracted total RNA (2 μg) was subjected to DNA microarray analysis (Mouse Genome 430 2.0 Affymetrix). In addition, scanning was performed with a GeneChip Scanner 3000 (Affymetrix 690036) and digitalization was performed with the Gene Chip Operating Software ver. 1.4.

MC3T3-E1 cells [3] = assay: RT-PCR verification of gene expression in MC3T3-E1 cells; format: cell-based, mouse
mouse tibia [4] = assay: RT-PCR of osteogenesis markers in tibia of mice given peptide D; format: in vivo; conditions: peptide D acetate 10 mg/kg s.c. three times daily for 5 days
Protocol: Synthetic peptide D subjected to substitution with an acetate was used in this experiment. The synthetic peptide D was dissolved in PBS at a concentration of 1 mg/mL. PBS was administered to a control group.
Subcutaneous administration of synthetic peptide D in the form of acetate was carried out in a dose of 10 mg/kg at 8:00, 14:00, and 20:00 (three times daily) for 5 days. PBS was administered to the control group. Mice were dissected 12 hour after the completion of administration for 5 days and subjected to exsanguination. Thereafter, the femur and the tibia were collected from each mouse. The whole blood of each mouse was left at room temperature for 1 hour and then centrifuged under conditions of 5000 rpm and 4° C. for 5 min. The serum was collected in a new tube. The femur and the tibia of each mouse were fixed with cold 70% ethanol. Muscles and the like were carefully removed from each tibia. Then, each tibia was washed with PBS and cut into 1-mm fragments with scissors, followed by freezing with liquid nitrogen. […]
After cDNA synthesis, as in the case of Example 23, PCR was performed using primers specific to mouse alkaline phosphatase (mALP), mouse type I collagen αI chain (mCollagen αI), and mouse osteocalcin (mOC). […] The obtained images were analyzed with a CSAnalyzer and standardized based on the GAPDH expression levels. […]

mouse tibia [5] = assay: DNA microarray analysis of tibia of mice given peptide D; format: in vivo; conditions: peptide D acetate 10 mg/kg s.c. three times daily for 5 days; n=2
Protocol: Total RNA (2 μg) extracted from the tibia of each mouse described in Example 24 was used for a DNA microarray (each group: n=2). According to a standard method, DNA microarray analysis (Mouse Genome 430 2.0 Affymetrix) was carried out. In addition, scanning was performed with a GeneChip Scanner 3000 (Affymetrix 690036) and digitalization was performed using the Gene Chip Operating Software ver. 1.4.

“peptide D: cyclic peptide of SEQ ID NO: 7, 9 amino acids, two cysteine residues bound via a disulfide bond; binds to RANKL (YCWSQYLCY; disulfide 2-8 (inferred))” was tested, and the “alizarin red staining (calcification)” value [1] was “strong degree of alizarin red staining”, the ALP activity (C2C12 cells; 50 μM peptide D alone) was “actions of ALP activity enhancement were not observed” and the “increase in the ALP activity relative to BMP-2 alone” value (C2C12 cells; 50 μM peptide D combined with 100 ng/mL BMP-2) was “at least 5 times”. For the same substance, the “mouse osteoblast proliferation (WST-1)” value (mouse osteoblasts) was “promoted mouse osteoblast proliferation; also recorded: weak effects”, the “expression level of the osteocalcin (OC) gene” value (MC3T3-E1 cells [2]) was “increased sharply” and the “gene expression levels of IRS-1, IGF-1, FGF receptor 2, PDGF receptor β, PDGF receptor α, CTGF, type I collagen α1 and α2 chains” value (MC3T3-E1 cells [2]; 12 hours) was “increased significantly”. The “gene expression levels of IGF-2, ALP, BMP-4, OC (osteocalcin), FGF2, PDGFc, PDGFα, PDGFβ” value (MC3T3-E1 cells [2]; 96 hours) was “increased significantly”, the “gene expression levels of IRS1, PDGFRβ, PDGFc, FGFR2, FGF2, CTGF, BMP-4 and IGF-2 (RT-PCR)” value (MC3T3-E1 cells [3]; 200 μM peptide D (acetate)) was “significant increases in the gene expression levels” and the “gene expression levels of ALP, Col1 and OC (RT-PCR)” value (MC3T3-E1 cells [3]; 200 μM peptide D (acetate) or 150 ng/ml BMP-2) was “significant increases in the gene expression levels”. For the same substance, the “expression levels of mALP, mCollagen αI and mOC in tibia” value (mouse tibia [4]) was “increase in the expression level of each factor” and the “microarray signals of OC, ALP, CoL1 α2, PDGFc, PDGFRβ and IGF-1 in tibia” value (mouse tibia [5]) was “significantly higher signals”.
